From the NIST ThermoML archive (doi:10.1016/j.jct.2008.01.020)

Assay: mn = molality of the nth substance listed, in mol/kg
Settings: 101 kPa, Liquid; for apparent molar heat capacity: Flow calorimetry

Nc1ncnc2c1ncn2[C@@H]1O[C@H](CO)[C@@H](O)[C@H]1O [β-adenosine] + O
Settings	apparent molar heat capacity [J/K/mol]	mass density [kg/m3]
288.15 K, m1 = 0.01329	–	1000.4
288.15 K, m1 = 0.01395	–	1000.47
288.15 K, m1 = 0.01492	–	1000.56
288.15 K, m1 = 0.01614	–	1000.68
288.15 K, m1 = 0.01712	–	1000.77
288.15 K, m1 = 0.01799	–	1000.86
288.15 K, m1 = 0.01882	–	1000.94
288.15 K, m1 = 0.01892	–	1000.95
288.15 K, m1 = 0.01942	–	1001
298.15 K, m1 = 0.01501	–	998.486
298.15 K, m1 = 0.01599	483.2	998.58
298.15 K, m1 = 0.01704	488	998.686
298.15 K, m1 = 0.01799	487.4	998.767
298.15 K, m1 = 0.01899	491.7	998.864
298.15 K, m1 = 0.01941	486.7	998.902
298.15 K, m1 = 0.01999	489.8	998.965
298.15 K, m1 = 0.02098	488.4	999.055
298.15 K, m1 = 0.02171	489.9	999.129
298.15 K, m1 = 0.02196	487.5	999.151
303.15 K, m1 = 0.01329	–	996.913
303.15 K, m1 = 0.01395	–	996.975
303.15 K, m1 = 0.01501	–	997.076
303.15 K, m1 = 0.01546	–	997.117
303.15 K, m1 = 0.01614	–	997.185
303.15 K, m1 = 0.01712	–	997.271
303.15 K, m1 = 0.01799	–	997.354
303.15 K, m1 = 0.01892	–	997.445
303.15 K, m1 = 0.01903	–	997.455
303.15 K, m1 = 0.01942	–	997.495
313.15 K, m1 = 0.01297	–	993.43
313.15 K, m1 = 0.01346	–	993.47
313.15 K, m1 = 0.01395	–	993.522
313.15 K, m1 = 0.01501	–	993.616
313.15 K, m1 = 0.01598	–	993.707
313.15 K, m1 = 0.017	–	993.802
313.15 K, m1 = 0.01799	–	993.896
313.15 K, m1 = 0.01882	–	993.976
313.15 K, m1 = 0.01997	–	994.077
